These results are taken from US12421249B2, “Inhibitors of APOL1 and methods of using same” (Vertex Pharmaceuticals Incorporated, priority 2020, dated 2025).

Assay [1] deals with T1, APOL1 G1 (Homo sapiens, UniProt O14791, I384M/S342G).
T1 sequence (O14791 28-398 S342G/I384M): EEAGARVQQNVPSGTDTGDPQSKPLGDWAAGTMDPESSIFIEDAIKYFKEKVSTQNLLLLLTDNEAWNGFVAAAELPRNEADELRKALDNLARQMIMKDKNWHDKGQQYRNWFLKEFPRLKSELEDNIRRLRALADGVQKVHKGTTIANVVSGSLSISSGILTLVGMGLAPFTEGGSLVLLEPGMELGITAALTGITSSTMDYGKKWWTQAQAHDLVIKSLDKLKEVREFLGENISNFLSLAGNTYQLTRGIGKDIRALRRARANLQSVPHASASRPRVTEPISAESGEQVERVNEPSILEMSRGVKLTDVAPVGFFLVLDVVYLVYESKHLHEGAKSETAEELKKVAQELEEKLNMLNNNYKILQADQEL
Description: Trypanosoma brucei brucei Lysis Assay Using APOL1 Recombinant Protein (AlamarBlue viability readout). The assay is classed as cell-based. As to conditions: Trypanosome Assay; for IC50: IP50 = IC50 for cell proliferation, read-out: Trypanosome Assay IP50; for Emax: read-out: Trypanosome Assay Max Activity (%). An excerpt: Trypanosoma brucei brucei is a blood stream parasite to which human, gorillas, and baboons are immune due to the presence of the APOL1 protein in their HDL particles. The protein is uptaken by the parasite via the TbHpHb receptor located in its flagellar pocket and is bonded by the Hpr protein contained in the HDL particles which triggers the receptor endocytosis by the parasite.
Following endocytosis, the formed vesicle containing the HDL particle matures from early to late endosome, and subsequently to lysosome. The concomitant pH change in the lumen of the vesicle triggers the insertion of the APOL1 protein into the membrane of the late endosome/lysosome and hereby triggers lysosomal membrane permeabilization and as a further downstream event, trypanosome lysis. Trypanosoma brucei brucei is sensitive to lysis by all three APOL1 variants (G0, G1, and G2).
The Trypanosoma brucei brucei lysis assay is a lysis assay of the parasite using recombinant APOL1 protein variant followed by a fluorescent detection method of viability by the addition of AlamarBlue reagent to the assay well, a general metabolic redox indicator (AlamarBlue assay).
Briefly, the AlamarBlue active compound, resazurin, a blue, water soluble, non-toxic and cell permeable molecule, which can be followed by absorbance, is reduced by various metabolic pathways into resorufin, a red compound which can be followed by either absorbance or fluorescence. The assay allows the calculation of the percent viability (percent of living Trypanosomes remaining in each well) at the end of a lysis relative to the untreated condition by interpolation of fluorescent values (FLU) on a standard curve with a known amount of seeded trypanosome/well.
Trypanosoma brucei brucei (ATCC, Cat. No. PRA-382)
• Lister 427 VSG 221 bloodstream form.
Equipment • E1-Clip Tip pipette 12 channel adjustable 2-125 μL, Cat. No. 4672070BT • ThermoFisher MultiDrop 384, Cat. No. 5840300 • Multidrop • Agilent Bravo, Cat. No. G5409A • Bravo • SpectraMax M5 Assay Ready Plates (ARPs) • ARPs comes in two formats: • […] final top concentration with a 2.5 fold dilution down. • […] final top concentration with a 3 fold dilution down. • Both have a 10 point Dose response. • 0.1% DMSO final in the Black Assay Plate. • Compounds are diluted 1000 fold in the Black Assay Plate. • Each plate is designed for 14 compounds in duplicate. • In the final Black Assay Plate: • Column 1: Media only (no APOL1) (100% viable) • Column 2-23: 0.05 μg/mL APOL1 (˜EC90) (10% viable with APOL1) • Column 24: 0.1 μg/mL APOL1 (EC100) (Approx. […] Step 2, Day 4 • Centrifuge at 800×g for 5 minutes at room temperature. • Resuspend in 1 mL media. • Make a 1:25 fold dilution (10 μL/240 μL media). • Count on a hemocytometer (after adding parasites). • Let sit for 1-2 minutes for the parasites to settle. • Count should be approximately 100 viable motile parasites/16 grid or approximately 25×10^6 parasites/flask. • Passage the parasites by adding 1×10^6 parasites/T75 flask in 20 mL media. • Passage the parasites by adding 2.33×10^6 parasites/T175 flask in 46.6 mL media. • For every T75 flask should make enough for approximately 1.5×384 well assay plates. • For every T175 flask should make enough for approximately 3.8×384 well assay plates. Step 3, Day 6 • Centrifuge at 800×g for 5 minutes. • Resuspend in 3 mL assay media (No phenol red, no FBS) per 75 starting flask. • Resuspend in 7 mL assay media (No phenol red, no FBS) per 175 flask • Make a 1:25 fold dilution. • Count by hemocytometer. • Every T75 flask set up should have approximately 75×10^6 parasites/flask (verify doubling time=8.7 hours±1 hour). • Every T175 flask set up should have approximately 175×10^6 parasites/flask (verify doubling time=8.7 hours±1 hour). • Require 46×10^6 parasites per 384 well plate (at 120,000 parasites per well). […]

The target in assay [2] is T2, APOL1 (Homo sapiens, UniProt O14791).
T2 sequence (O14791 1-398 S342G/I384M): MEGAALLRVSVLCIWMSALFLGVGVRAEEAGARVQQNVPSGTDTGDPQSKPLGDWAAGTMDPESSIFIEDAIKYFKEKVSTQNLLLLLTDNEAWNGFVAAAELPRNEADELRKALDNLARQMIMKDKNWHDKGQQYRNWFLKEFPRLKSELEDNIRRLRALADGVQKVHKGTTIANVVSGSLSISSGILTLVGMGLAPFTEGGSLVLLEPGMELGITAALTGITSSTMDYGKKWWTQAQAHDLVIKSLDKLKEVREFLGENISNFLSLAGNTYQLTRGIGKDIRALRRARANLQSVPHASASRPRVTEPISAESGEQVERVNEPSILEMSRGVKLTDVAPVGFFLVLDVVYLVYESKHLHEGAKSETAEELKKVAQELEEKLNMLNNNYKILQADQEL
The experiment in a line: Multi-Tox Assay (MultiTox-Fluor Multiplex Cytotoxicity Assay in tet-inducible APOL1 T-REx-HEK293 cells; Table 46 does not say which APOL1 variant G0/G1/G2). The assay is classed as cell-based. As to conditions: APOL1 variant not given; for IC50: IP50 = IC50 for cell proliferation.

Consider `C[C@H]1C[C@@]2(C[C@@H](c3cccc(C#N)n3)N1)OCCc1cc(Cl)sc12` (racemic) [Compound 53], for which, in assay [1], the IC50 fell in the range of 50 to 500 nM and the Emax is 106%. In assay [2], the “Multi-Tox Assay Max Activity (%)” value is recorded as 99.3% and the IC50 is less than 50 nM.
In the case of `C[C@H]1C[C@@]2(C[C@@H](c3ccc4c(c3)NC(=O)CO4)N1)OCCc1cc(Cl)sc12` (racemic) [Compound 54], in assay [1], the IC50 is less than 50 nM and the Emax stood at 102%. In addition, in assay [2], the IC90 is less than 50 nM, the “Multi-Tox Assay Max Activity (%)” value was 100.0% and the IC50 is less than 50 nM.
Regarding `Cc1ccc([C@@H]2C[C@]3(C[C@H](C)N2)OCCc2cc(Cl)sc23)cn1` (racemic) [Compound 55], in assay [1], the IC50 was less than 50 nM and the Emax was found to be 112%. In addition, in assay [2], the “Multi-Tox Assay Max Activity (%)” value is 99.7% and the IC50 is less than 50 nM.
For `C[C@H]1C[C@@]2(C[C@@H](c3cnn(CCO)c3)N1)OCCc1cc(Cl)sc12` (racemic) [Compound 56], in assay [1], the IC50 was less than 50 nM and the Emax amounted to 116%. Further, in assay [2], the “Multi-Tox Assay Max Activity (%)” value came out at 99.8% and the IC50 is less than 50 nM.
Consider `C[C@H]1C[C@@]2(C[C@@H](c3cnc(N)nc3)N1)OCCc1cc(Cl)sc12` (racemic) [Compound 57], for which, in assay [1], the IC50 is less than 50 nM and the Emax was determined as 105%. Besides, in assay [2], the “Multi-Tox Assay Max Activity (%)” value amounted to 99.7% and the IC50 was less than 50 nM.
Take `Cc1ccc([C@@H]2C[C@]3(C[C@H](C)N2)OCCc2cc(Cl)sc23)nn1` (racemic) [Compound 58]: in assay [1], the IC50 is less than 50 nM and the Emax amounted to 100%. In addition, in assay [2], the “Multi-Tox Assay Max Activity (%)” value is 99.7% and the IC50 was less than 50 nM.
As for `C[C@H]1C[C@@]2(C[C@@H](c3ccc(O)cn3)N1)OCCc1cc(Cl)sc12` (racemic) [Compound 59], in assay [1], the IC50 is less than 50 nM and the Emax was 116%. Besides, in assay [2], the “Multi-Tox Assay Max Activity (%)” value amounted to 99.3% and the IC50 was less than 50 nM.
Consider `CNc1ncc([C@@H]2C[C@]3(C[C@H](C)N2)OCCc2cc(Cl)sc23)cn1` (racemic) [Compound 60], for which, in assay [1], the IC50 is less than 50 nM and the Emax stood at 102%. For the same compound, in assay [2], the “Multi-Tox Assay Max Activity (%)” value is given as 99.7% and the IC50 was less than 50 nM.
In the case of `COc1ccc([C@@H]2C[C@]3(C[C@H](C)N2)OCCc2cc(Cl)sc23)cc1C#N` (racemic) [Compound 62], in assay [1], the IC50 was less than 50 nM and the Emax is 95%. Moreover, the IC50 in assay [2] was less than 50 nM.
Turning to `C[C@H]1C[C@@]2(C[C@@H](c3cnc(C(N)=O)cn3)N1)OCCc1cc(Cl)sc12` (racemic) [Compound 63], in assay [1], the IC50 is less than 50 nM and the Emax turned out to be 104%. Further, in assay [2], the IC50 is less than 50 nM.
In the case of `Cc1cncc([C@@H]2C[C@]3(C[C@H](C)N2)OCCc2cc(Cl)sc23)c1` (racemic) [Compound 64], the IC50 in assay [1] and in assay [2] was less than 50 nM throughout.
In the case of `C[C@H]1C[C@@]2(C[C@@H](c3cnn(-c4ccccc4)c3)N1)OCCc1cc(Cl)sc12` (racemic) [Compound 65], in assay [1], the IC50 was less than 50 nM and the Emax turned out to be 105%. Moreover, the IC50 in assay [2] was less than 50 nM.
With `Cc1cc([C@@H]2C[C@]3(C[C@H](C)N2)OCCc2cc(Cl)sc23)on1` (racemic) [Compound 66], the IC50 in assay [1] and in assay [2] was less than 50 nM throughout. Besides, in assay [1], the Emax was 103%.
As to `C[C@H]1C[C@@]2(C[C@@H](c3ccc4cn[nH]c4c3)N1)OCCc1cc(Cl)sc12` (racemic) [Compound 67], in assay [1], the IC50 is less than 50 nM and the Emax amounted to 105%. This compound also yielded an IC50 in assay [2] of less than 50 nM.
For the compound `C[C@H]1C[C@@]2(C[C@@H](c3ccc(O)nc3)N1)OCCc1cc(Cl)sc12` (racemic) [Compound 68], in assay [1], the IC50 was less than 50 nM and the Emax came to 106%. The same compound showed an IC50 in assay [2] of less than 50 nM.
For `CCOc1ccc([C@@H]2C[C@]3(C[C@H](C)N2)OCCc2cc(Cl)sc23)nc1` (racemic) [Compound 69], in assay [1], the IC50 was less than 50 nM and the Emax amounted to 110%. In assay [2], this compound yielded an IC50 of less than 50 nM.
As to `C[C@H]1C[C@@]2(C[C@@H](c3cnc(-c4ccccc4)o3)N1)OCCc1cc(Cl)sc12` (racemic) [Compound 70], the IC50 in assay [1] and in assay [2] was less than 50 nM each time. Moreover, the Emax in assay [1] was 104%.
For the compound `C[C@H]1C[C@@]2(C[C@@H](c3ccc(C(=O)NC4CC4)cc3)N1)OCCc1cc(Cl)sc12` (racemic) [Compound 71], in assay [1], the IC50 is less than 50 nM and the Emax stood at 104%. In assay [2], this compound yielded an IC50 of less than 50 nM.
In the case of `C[C@H]1C[C@@]2(C[C@@H](c3c[nH]nn3)N1)OCCc1cc(Cl)sc12` (racemic) [Compound 72], in assay [1], the IC50 is less than 50 nM and the Emax is 118%. This compound also registered an IC50 in assay [2] of less than 50 nM.
As for `Cc1cc([C@@H]2C[C@]3(C[C@H](C)N2)OCCc2cc(Cl)sc23)[nH]n1` (racemic) [Compound 73], in assay [1], the IC50 was less than 50 nM and the Emax came to 110%. In addition, in assay [2], the IC50 is less than 50 nM.
`C[C@H]1C[C@@]2(C[C@@H](c3cn4c(n3)COCC4)N1)OCCc1cc(Cl)sc12` (racemic) [Compound 74]: in assay [1], the IC50 lay in the range of 50 to 500 nM and the Emax was 110%. This compound also had an IC50 in assay [2] of less than 50 nM.
As for `C[C@H]1C[C@@]2(C[C@@H](c3cnc(N(C)C)nc3)N1)OCCc1cc(Cl)sc12` (racemic) [Compound 75], in assay [1], the IC50 is less than 50 nM and the Emax was found to be 105%. The IC50 in assay [2] was less than 50 nM.
As to `Cc1ccc([C@@H]2C[C@]3(C[C@H](C)N2)OCCc2cc(Cl)sc23)nc1` (racemic) [Compound 77], the IC50 in assay [1] and in assay [2] was less than 50 nM each time. Further, the Emax in assay [1] is 110%.
For `C[C@H]1C[C@@]2(C[C@@H](c3ccc(S(N)(=O)=O)cc3F)N1)OCCc1cc(Cl)sc12` (racemic) [Compound 78], in assay [1], the IC50 is less than 50 nM and the Emax came to 102%. In assay [2], this compound yielded an IC50 of less than 50 nM.

In general, IC90 refers to the concentration at which the effect reaches the 90% level.
